Results published in PMC12408761, “Impact of physical activity on ethoxy- and propoxypropanol human toxicokinetics in vivo” (Archives of Toxicology, 2025).
Read-outs that look alike come from different tables or passages of the source.

Experiments:
[1] = Controlled human inhalation exposure (4 h in exposure chamber, at rest or with moderate physical activity): toxicokinetics in blood, urine and exhaled breath; format: in vivo; settings: for Time at which Cmax was reached (Tmax): time after start of exposure; for average Cmax in exhaled breath: for a same concentration of exposure; for Time at which Cmax was reached: urine and exhaled breath; for Increase of urinary absorption rate with physical activity versus rest: first 2 h of exposure
Description: All exposure sessions were performed under controlled conditions at the Department of Occupational and Environmental Health, Center for Primary Care and Public Health (Unisanté), University of Lausanne, in Switzerland. PGEE or PGPE air concentrations were generated in a 12 m^3 exposure chamber (Guillemin [1975]) and monitored electronically (Lab VIEW software, National Instruments Corporation, Texas, USA) with a portable infrared spectroscopy gas analyzer for ambient air analysis (GASMET™ analyzer DX-4040 Gasmet Oy, Helsinki technologies, Finland) (Devanthery et al. [2003]; Tomicic et al. [2011]). During each exposure session, the participant spent 4 h inside the exposure chamber, and then 2 h outside in a solvent-free area. Each participant took part in four different exposure sessions comprising four different experimental conditions. Three sessions were performed at rest at either 25, 30, and 35 ppm of PGEE or 15, 20, and 25 ppm of PGPE. The fourth session was performed with moderate physical activity at 35 ppm of PGEE or 25 ppm of PGPE (Fig. 1).
The air concentrations were below the existing OEL for PGEE, i.e., 50 ppm. Given the absence of an OEL for PGPE, the chosen concentrations were previously tested to ensure odor tolerance for participants. The participants performed the physical activity at 1.5 W/kg on an ergonomic bicycle (Corival, Lode B.V., Groningen, The Netherlands) for 30 min twice during the same exposure session: the first without solvent exposure and the second with PGEE or PGPE. The physical activity design was adapted after discussion with sports science researchers from the University of Lausanne. A minimum of 48 h between two exposure sessions was determined to avoid possible cumulative exposure (Borgatta et al. [2022]). Blood, urine, and exhaled breath samples were collected before, during, and after all exposure sessions. The timing of sample collection was based on previous studies and protocol testing.
The blood samples were collected with an intravenous catheter inserted in the participant’s forearm by a research nurse into glass tubes (Vacutainers® NH Heparine Sodium, Becton Dickinson AG, Basel, Switzerland). A first blood sample was collected before the exposure session in a solvent-free area and used as baseline value. The timing following the first blood sample was 30, 120, 180, 240, 255, 300, and 360 min after the exposure to PGE started. The last blood sample was collected 24 h post-exposure. The blood samples were kept in the dark at 4 °C until analysis.
The participants were asked to provide a urine sample before the exposure session (solvent-free area, baseline) and then, every 2 h over 6 h. The participants continued to collect their urine (ad lib) samples at home for additional 24 h and bring them back in a cooler with cooling elements the day after the exposure session. They provided urine collection date, time, and total urinary volume. All urine samples were stored in polypropylene cups in the dark at 4 °C (Borgatta et al. [2021]). The cold storage is important to avoid any loss of substance as glycol ethers are volatile organic compounds.
The exhaled breath samples were collected using a non-invasive simple-to-use device for biological exposure monitoring of volatile organic compounds (BioVOC-2 Breath Sampler, Brechbühler, Schlieren, Switzerland). The last portion of expired breath (129 mL) was collected on thermal desorption (TD) tubes (Tenax® TA, Camsco, Böckten, Switzerland) from each participant. A first exhaled breath sample was collected before the exposure session in a solvent-free area (baseline). The timing following the first exhaled breath sample was 120, 240, 255, 260, 265, 270, 275 and 360 min after exposure had started and a last one 24 h post exposure. Exhaled breath samples were analyzed immediately after collection. […]

[2] = set-up: method as in Groeseneken et al. [1986], [1987]; settings: humans; ref Groeseneken et al. [1986], [1987]; cited from earlier work
[3] = blood, at rest, 4 h inhalation, geometric mean ± SD
[4] = blood, physical activity, 35 ppm PGEE or 25 ppm PGPE, geometric mean ± SD
[5] = human, inhaled or intranasal, blood, at rest, 4 h inhalation (PGEE 25-35 ppm, PGPE 15-25 ppm), geometric mean ± SD
[6] = human, inhaled or intranasal, blood, at rest, 4 h inhalation, geometric mean ± SD, read-out: Cmax
[7] = human, inhaled or intranasal, urine, at rest, 4 h inhalation (PGEE 25-35 ppm, PGPE 15-25 ppm), geometric mean ± SD
[8] = human, inhaled or intranasal, urine, at rest, 4 h inhalation, geometric mean ± SD, read-out: Cmax
[9] = human, inhaled, blood, at rest, for a same concentration of exposure (25 ppm), read-out: average Cmax in blood
[10] = human, inhaled, blood, at rest, read-out: half-life in blood
[11] = human, inhaled, blood, physical activity (30 min, 1.5 W/kg), 35 ppm PGEE or 25 ppm PGPE, geometric mean ± SD
[12] = human, inhaled, blood, physical activity, 35 ppm PGEE or 25 ppm PGPE, geometric mean ± SD, read-out: Cmax
[13] = human, inhaled, exhaled breath, all exposure conditions, read-out: Half-life (converted)
[14] = human, inhaled, urine, physical activity (30 min, 1.5 W/kg), 35 ppm PGEE or 25 ppm PGPE, geometric mean ± SD
[15] = human, inhaled, urine, physical activity, 35 ppm PGEE or 25 ppm PGPE, geometric mean ± SD, read-out: Cmax
[16] = urine, at rest, 4 h inhalation, geometric mean ± SD
[17] = urine, physical activity, 35 ppm PGEE or 25 ppm PGPE, geometric mean ± SD

Compound: CCCOCC(C)O (centres unmarked) [PGPE, propylene glycol propyl ether]
- Absorption (absorption rate) [1, 3]: 0.011 ± 0 µg/mL/h*ppm
- Time at which Cmax was reached (Tmax) ([1]; blood, at rest): 180 min
- Absorption (absorption rate) [1, 4]: 0.024 ± 0.002 µg/mL/h*ppm
- Share of total blood uptake quantified in exhaled breath (AUC exhaled breath / AUC blood) ([1]; exhaled breath): 1.1%
- average Cmax in exhaled breath ([1]; exhaled breath, at rest): 2.25 ± 0.66 ppm
- AUC [1, 5]: 2650 ng·h/mL
- Cmax [1, 6]: 500 ± 130 ng/mL
- AUC [1, 7]: 1910 ng·h/mL
- Cmax [1, 8]: 450 ± 110 ng/mL
- Cmax [1, 9]: 650 ± 90 ng/mL
- half-life [1, 10]: 54 min
- AUC [1, 11]: 5130 ng·h/mL
- Cmax [1, 12]: 1230 ± 90 ng/mL
- half-life [1, 13]: 2.28 min
- half-life ([1]; human, inhaled, urine, all conditions, read-out: urinary half-life): 54 min
- AUC [1, 14]: 3090 ng·h/mL
- Cmax [1, 15]: 710 ± 140 ng/mL
- Share of total blood uptake quantified in urine (AUC urine / AUC blood) ([1]; urine): 69.5%
- Time at which Cmax was reached ([1]; all conditions): at the end of exposure
- half-life ([1]; urine, all exposure conditions): 54 min
- Absorption (absorption rate) [1, 16]: 0.007 ± 0.0017 µg/mL/h*ppm
- Increase of urinary absorption rate with physical activity versus rest ([1]; urine): did not differ significantly
- Absorption (absorption rate) [1, 17]: 0.0087 ± 0.0008 µg/mL/h*ppm

Compound: CCOCC(C)O (centres unmarked) [PGEE, propylene glycol ethyl ether]
- Absorption (absorption rate) [1, 3]: 0.013 ± 0 µg/mL/h*ppm
- Time at which Cmax was reached (Tmax) ([1]; blood, at rest): 240 min
- Absorption (absorption rate) [1, 4]: 0.038 ± 0.004 µg/mL/h*ppm
- Blood concentration following PGEE exposure compared to PGPE ([1]; blood, same concentration of exposure (25 ppm)): 1.3 fold
- Share of total blood uptake quantified in exhaled breath (AUC exhaled breath / AUC blood) ([1]; exhaled breath): less than 0.5%
- average Cmax in exhaled breath ([1]; exhaled breath, at rest): 2.81 ± 0.76 ppm
- AUC [1, 5]: 7320 ng·h/mL
- Cmax [1, 6]: 1070 ± 300 ng/mL
- AUC [1, 7]: 5050 ng·h/mL
- Cmax [1, 8]: 1070 ± 210 ng/mL
- Cmax [1, 9]: 810 ± 80 ng/mL
- half-life [1, 10]: 60 min
- AUC [1, 11]: 16600 ng·h/mL
- Cmax [1, 12]: 2760 ± 260 ng/mL
- half-life [1, 13]: 2.88 min
- half-life ([1]; human, inhaled, urine, all exposure conditions, read-out: Half-life (converted)): 78 min
- AUC [1, 14]: 8820 ng·h/mL
- Cmax [1, 15]: 1810 ± 470 ng/mL
- Time at which Cmax was reached ([1]; all conditions): at the end of exposure
- Absorption (absorption rate) [1, 16]: 0.010 ± 0.002 µg/mL/h*ppm
- Increase of urinary absorption rate with physical activity versus rest ([1]; urine): 1.5 times
- Absorption (absorption rate) [1, 17]: 0.014 ± 0.003 µg/mL/h*ppm

Compound: CCOCCOC(C)=O [EGEEAc]
- exhalation as share of the total uptake [2]: less than 0.4%

Compound: CCOCCO [EGEE, ethylene glycol ethyl ether]
- exhalation as share of the total uptake [2]: less than 0.4%
